From the supplement of paper PMC10307832

Experiments:
Experiment in all cases: relative viability (nuclei count vs DMSO), 5 days (fraction); higher = more cells survive
Avagacestat + Bortezomib = compound: NC(=O)[C@@H](CCC(F)(F)F)N(Cc1ccc(-c2ncon2)cc1F)S(=O)(=O)c1ccc(Cl)cc1 [Avagacestat] + CC(C)C[C@H](NC(=O)[C@H](Cc1ccccc1)NC(=O)c1cnccn1)B(O)O [Bortezomib] (partner 0.002 µM)
Summary of the method: (§1)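 Lung cancer cell lines were pin-tool dosed in 1536-well plates on the day after seeding, with either a lone drug or a fixed anchor-drug dose plus five library-drug doses (not always all listed) in √10 steps. Nuclei were counted on 4× images after 5 days. Relative viability is the ratio of treated-well to vehicle-well nuclei counts, with each value a median of duplicate plates.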

[1] = compound: NC(=O)[C@@H](CCC(F)(F)F)N(Cc1ccc(-c2ncon2)cc1F)S(=O)(=O)c1ccc(Cl)cc1 [Avagacestat] + CC(=O)c1c(C)c2cnc(Nc3ccc(N4CCNCC4)cn3)nc2n(C2CCCC2)c1=O [Palbociclib] (partner 0.5 µM)
Summary of the method: as §1

Avagacestat + Dasatinib = compound: NC(=O)[C@@H](CCC(F)(F)F)N(Cc1ccc(-c2ncon2)cc1F)S(=O)(=O)c1ccc(Cl)cc1 [Avagacestat] + Cc1nc(Nc2ncc(C(=O)Nc3c(C)cccc3Cl)s2)cc(N2CCN(CCO)CC2)n1 [Dasatinib] (partner 0.075 µM)
Summary of the method: as §1

Avagacestat + Alpelisib = compound: NC(=O)[C@@H](CCC(F)(F)F)N(Cc1ccc(-c2ncon2)cc1F)S(=O)(=O)c1ccc(Cl)cc1 [Avagacestat] + Cc1nc(NC(=O)N2CCC[C@H]2C(N)=O)sc1-c1ccnc(C(C)(C)C(F)(F)F)c1 [Alpelisib] (partner 2 µM)
Summary of the method: as §1

Cell Line	relative viability (Avagacestat + Bortezomib; first compound 0.08 µM)	relative viability (Avagacestat + Bortezomib; first compound 0.253 µM)	relative viability (Avagacestat + Bortezomib; first compound 0.8 µM)	relative viability (Avagacestat + Bortezomib; first compound 2.53 µM)	relative viability (Avagacestat + Bortezomib; first compound 8 µM)	relative viability ([1]; first compound 0.08 µM)	relative viability ([1]; first compound 0.253 µM)	relative viability ([1]; first compound 0.8 µM)	relative viability ([1]; first compound 2.53 µM)	relative viability ([1]; first compound 8 µM)	relative viability (Avagacestat + Dasatinib; first compound 0.08 µM)	relative viability (Avagacestat + Dasatinib; first compound 0.253 µM)	relative viability (Avagacestat + Dasatinib; first compound 0.8 µM)	relative viability (Avagacestat + Dasatinib; first compound 2.53 µM)	relative viability (Avagacestat + Dasatinib; first compound 8 µM)	relative viability (Avagacestat + Alpelisib; first compound 0.08 µM)	relative viability (Avagacestat + Alpelisib; first compound 0.253 µM)	relative viability (Avagacestat + Alpelisib; first compound 0.8 µM)	relative viability (Avagacestat + Alpelisib; first compound 2.53 µM)	relative viability (Avagacestat + Alpelisib; first compound 8 µM)
LCLC-103H	1.01	1.07	1.03	1.07	1.04	0.54	0.444	0.473	0.501	0.446	0.456	0.46	0.508	0.368	0.678	0.983	0.939	1.01	0.842	0.753
A-427	0.957	1.08	1.07	1.07	1.08	0.506	0.517	0.516	0.539	0.544	0.785	0.859	0.755	0.935	0.649	1.14	1.2	1.1	1.07	1.14
NCI-H441	0.66	0.925	0.531	0.485	0.248	0.242	0.214	0.249	0.229	0.218	0.518	0.471	0.541	0.532	0.454	0.92	0.761	1.05	0.973	0.986
NCI-H1993	1.37	1.35	1.47	1.27	1.3	0.758	0.714	0.705	0.572	0.638	0.53	0.549	0.586	0.491	0.538	0.756	0.691	0.693	0.752	0.727
NCI-H2023	1.13	1.1	1.08	0.886	0.808	0.363	0.327	0.33	0.316	0.294	0.564	0.643	0.563	0.419	0.422	0.659	0.781	0.536	0.562	0.536
NCI-H1666	0.942	0.78	0.861	0.83	0.842	0.69	0.699	0.642	0.714	0.644	0.819	0.739	0.876	0.783	0.653	1.26	0.982	1.32	1.03	1.1
LCLC-97TM1	0.98	0.625	1.38	0.786	0.482	0.294	0.264	0.312	0.185	0.206	0.945	0.86	0.757	0.866	0.706	0.265	0.224	0.185	0.186	0.218
NCI-H1755	0.996	1.11	1.07	0.967	0.937	0.444	0.438	0.492	0.389	0.463	0.445	0.357	0.234	0.389	0.334	1.24	1.1	1.05	0.939	0.777
EPLC-272H	1.02	1.02	1.05	1.21	0.922	0.368	0.344	0.327	0.32	0.291	0.328	0.339	0.289	0.348	0.266	1.05	1	1.02	1.09	0.865
NCI-H2085	1.13	1.21	1.14	1.13	0.992	0.464	0.469	0.478	0.468	0.511	0.201	0.202	0.229	0.222	0.252	1.15	1.07	1.08	1	1.05
BEN	0.936	0.789	0.954	0.533	0.775	0.466	0.456	0.502	0.513	0.482	0.382	0.325	0.389	0.37	0.326	1.13	1.01	0.944	0.774	1.07
COR-L 105	0.894	0.681	0.689	0.697	0.687	0.435	0.353	0.429	0.391	0.4	0.281	0.307	0.345	0.247	0.279	1.14	0.917	0.976	0.679	0.612
ABC-1	0.325	0.294	0.362	0.273	0.271	0.846	0.542	0.67	0.654	0.522	0.648	0.644	0.644	0.725	0.59	1.11	1.02	1.26	1.11	1.29
HCC-15	1.22	1.21	1.24	0.973	0.921	0.906	1.01	0.78	0.68	0.694	0.685	0.642	0.652	0.608	0.539	1.01	1.05	0.93	0.861	0.802
SK-LU-1	1.46	1.21	1.32	1.13	0.737	0.377	0.372	0.327	0.338	0.345	0.172	0.138	0.18	0.142	0.189	1.02	0.633	0.937	0.773	0.807
NCI-H2009	1.04	1.03	1.07	1.02	0.828	0.201	0.202	0.214	0.215	0.199	0.323	0.274	0.282	0.257	0.229	1.28	1.29	1.16	1.18	1.08
NCI-H1975	0.382	0.343	0.415	0.327	0.318	0.688	0.633	0.887	0.599	0.536	0.395	0.478	0.386	0.402	0.384	0.686	0.62	0.719	0.585	0.665
SW 1573	1.26	1.03	1.19	0.967	0.922	0.512	0.422	0.475	0.337	0.357	0.515	0.593	0.523	0.565	0.279	0.858	0.855	0.688	0.753	0.494
LU99A	1.28	1.13	0.938	1.1	1.19	0.407	0.429	0.472	0.414	0.366	0.483	0.542	0.455	0.444	0.471	0.659	0.498	0.529	0.51	0.483
NCI-H2405	1.06	1.03	0.999	0.919	0.94	0.512	0.532	0.478	0.448	0.489	0.186	0.204	0.217	0.229	0.226	0.717	0.742	0.735	0.583	0.625
NCI-H2228	1.12	0.952	1.05	0.886	0.734	0.783	0.819	0.947	0.911	0.595	0.546	0.426	0.435	0.408	0.474	0.842	0.619	0.773	0.567	0.698
HOP-62	0.783	0.819	0.727	0.513	0.709	0.461	0.482	0.412	0.458	0.366	0.701	0.63	0.626	0.502	0.484	1	0.908	0.971	0.94	0.889
NCI-H322M	1.27	1.23	1.4	1.05	1.17	0.456	0.442	0.455	0.419	0.531	0.281	0.242	0.247	0.251	0.257	0.762	0.787	0.904	0.633	0.54
HCC-78	0.508	0.51	0.514	0.313	0.366	0.493	0.488	0.511	0.478	0.441	0.452	0.273	0.343	0.327	0.331	0.299	0.358	0.347	0.269	0.321
